ChEMBL document CHEMBL1201862, “PubChem BioAssay data set” (2004)
The source made the active and inactive calls.

What was measured:
[1] = target: Dual specificity protein phosphatase 3 (Homo sapiens, UniProt P51452); test: inhibition constants for human DUSP3 – biochemical, colorimetric, SAR follow-up (AID 2004)
[2] = target: Heat shock 70 kDa protein 1A (Homo sapiens, UniProt P0DMV8); test: inhibition of Hsp70 binding activity – biochemical, fluorescence polarization, SAR follow-up (AID 1072)
[3] = target: Glyceraldehyde-3-phosphate dehydrogenase (Homo sapiens, UniProt P04406)
[4] = target: T1, Dual specificity protein phosphatase 6 (Rattus norvegicus, UniProt Q64346); assay type: functional
T1 sequence (Q64346 whole entry): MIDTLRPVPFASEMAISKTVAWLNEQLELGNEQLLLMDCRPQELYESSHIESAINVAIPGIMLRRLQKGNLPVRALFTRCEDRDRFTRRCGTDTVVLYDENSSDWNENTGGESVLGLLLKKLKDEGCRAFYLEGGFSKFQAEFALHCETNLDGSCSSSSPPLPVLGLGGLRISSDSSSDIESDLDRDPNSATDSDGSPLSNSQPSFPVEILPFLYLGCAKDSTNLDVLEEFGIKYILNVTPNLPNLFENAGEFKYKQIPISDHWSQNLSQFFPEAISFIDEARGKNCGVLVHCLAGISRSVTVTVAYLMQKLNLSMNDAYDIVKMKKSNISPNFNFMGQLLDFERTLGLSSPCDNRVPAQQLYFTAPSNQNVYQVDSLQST

[5] = target: T2, Tyrosine-protein phosphatase non-receptor type 7 (Homo sapiens, UniProt P35236); assay type: functional
T2 sequence (P35236 whole entry): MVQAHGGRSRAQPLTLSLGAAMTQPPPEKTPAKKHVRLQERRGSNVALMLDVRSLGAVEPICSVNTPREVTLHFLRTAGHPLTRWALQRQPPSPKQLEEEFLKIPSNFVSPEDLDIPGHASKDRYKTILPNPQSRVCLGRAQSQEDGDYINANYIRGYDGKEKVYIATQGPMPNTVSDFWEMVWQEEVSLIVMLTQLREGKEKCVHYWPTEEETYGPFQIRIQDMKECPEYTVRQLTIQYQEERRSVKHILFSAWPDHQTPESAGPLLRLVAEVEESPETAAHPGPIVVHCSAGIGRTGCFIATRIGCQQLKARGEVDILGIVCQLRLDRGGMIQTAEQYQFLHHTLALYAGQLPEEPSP

[6] = target: Heat shock cognate 71 kDa protein (Homo sapiens, UniProt P11142); test: In Vitro Hsc70 Dose Response Fluorescence Polarization Assay. [Related pubchem assays: 1072 ]
[7] = target: T1, Dual specificity protein phosphatase 6
Wee1-like protein kinase = Wee1-like protein kinase (Homo sapiens, UniProt P30291); test: HeLa cell cycle G2/M accumulation – FACS, mechanism study for Wee1 degradation inhibitor project, late-stage follow-up, panel member Wee1 Degradation (AID 2088)
[8] = target: G2/mitotic-specific cyclin-B1 (Homo sapiens, UniProt P14635); test: HeLa cell cycle G2/M accumulation – FACS, mechanism study for Wee1 degradation inhibitor project, late-stage follow-up, panel member Cyclin B Degradation (AID 2088)
[9] = target: Melanin-concentrating hormone receptor 1 (Homo sapiens, UniProt Q99705); test: Late-stage fluorescence-based counterscreen for antagonists of the G-protein coupled receptor 7 (GPR7): cell-based dose response assay to identify antagonists of the melanin-concentrating hormone receptor 1 (MCHR1). [Related pubchem assays (depositor defined):AID1861, AID1880, AID1952, AID2148, AID2251, AID2257, AID485339]; assay type: functional;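 note: stimulated with 30 nM MCH peptide agonist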
[10] = Luminescence Cell-Based Dose Response to Identify Activators of 5'UTR Stem-Loop Driven Prion Protein mRNA Translation in H4-C Neuroglioblastoma Cells. [Related pubchem assays: 1829 (Project Summary), 1814 (Primary HTS)]; assay type: functional
[11] = Luminescence Cell-Based Dose Response to Identify Activators of Luciferase Translation or Activity in H4-C Neuroglioblastoma Cells. [Related pubchem assays: 1829 (Project Summary), 1814 (Primary HTS)]; assay type: functional
[12] = Luminescence Cell-Based Dose Response HTS to Identify Activators of Luciferase Translation or Activity in H4 […] Cells. [Related pubchem assays: 1829 (Project Summary), 1814 (Primary HTS)]; assay type: functional
H4 = test: Luminescence Cell-Based Dose Response HTS to Identify Activators of 5'UTR Stem-Loop Driven Prion Protein mRNA Translation in H4 Neuroglioblastoma Cells. [Related pubchem assays: 1829 (Project Summary), 1814 (Primary HTS)]; assay type: functional; details: Homo sapiens
[13] = Luminescence Cell-Based Dose Confirmation to Identify Activators of 5'UTR Stem-Loop Driven Alpha-Synuclein mRNA Translation in H4 Neuroglioblastoma Cells. [Related pubchem assays: 1829 (Project Summary), 1814 (Primary HTS)]; assay type: functional
[14] = target: Cyclin-dependent kinase 5/CDK5 activator 1 (Homo sapiens, UniProt Q00535); test: blockade of human CDK5 activity – biochemical, cherry-picked samples, set 2, dose response (AID 504545)
[15] = target: T3, Rac GTPase-activating protein 1 (Homo sapiens, UniProt Q9H0H5); test: blockers of MgcRacGAP-driven Rac1 GTP hydrolysis – biochemical, ADP Hunter fluorescence, primary and confirmatory, confirmation (AID 624330); assay type: functional
T3 sequence (Q9H0H5 whole entry): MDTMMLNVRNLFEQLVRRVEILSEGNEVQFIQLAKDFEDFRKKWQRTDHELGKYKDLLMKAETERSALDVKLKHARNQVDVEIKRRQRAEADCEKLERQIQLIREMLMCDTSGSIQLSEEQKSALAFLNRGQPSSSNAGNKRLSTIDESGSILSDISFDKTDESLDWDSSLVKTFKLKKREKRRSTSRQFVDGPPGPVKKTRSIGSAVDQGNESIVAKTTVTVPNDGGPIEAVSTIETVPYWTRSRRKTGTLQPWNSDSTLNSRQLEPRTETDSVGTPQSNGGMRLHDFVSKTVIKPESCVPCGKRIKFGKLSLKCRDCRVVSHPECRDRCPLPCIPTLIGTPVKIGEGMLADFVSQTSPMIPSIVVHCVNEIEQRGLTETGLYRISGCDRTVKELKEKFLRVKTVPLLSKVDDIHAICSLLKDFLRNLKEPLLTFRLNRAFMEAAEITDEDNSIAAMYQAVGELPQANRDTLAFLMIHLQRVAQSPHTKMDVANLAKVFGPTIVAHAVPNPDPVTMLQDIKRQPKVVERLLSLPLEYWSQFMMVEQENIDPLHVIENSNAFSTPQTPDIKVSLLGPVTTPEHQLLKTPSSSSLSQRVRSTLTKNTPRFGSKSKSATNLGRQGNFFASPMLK

[16] = target: FAD-linked sulfhydryl oxidase ALR (Homo sapiens, UniProt P55789); test: ALR-catalysed DTT oxidation blockers – biochemical, H2O2 detection, luminescence, cherry-pick, dose response (AID 493248)
[17] = target: T4, Short transient receptor potential channel 4 (Mus musculus, UniProt Q9QUQ5); test: calcium entry via TRPC4 opening agents – cell-based, HEK293 TRPC4/mu-opioid, Fluo-4 calcium, dose response (AID 434937); assay type: functional
T4 sequence (Q9QUQ5 whole entry): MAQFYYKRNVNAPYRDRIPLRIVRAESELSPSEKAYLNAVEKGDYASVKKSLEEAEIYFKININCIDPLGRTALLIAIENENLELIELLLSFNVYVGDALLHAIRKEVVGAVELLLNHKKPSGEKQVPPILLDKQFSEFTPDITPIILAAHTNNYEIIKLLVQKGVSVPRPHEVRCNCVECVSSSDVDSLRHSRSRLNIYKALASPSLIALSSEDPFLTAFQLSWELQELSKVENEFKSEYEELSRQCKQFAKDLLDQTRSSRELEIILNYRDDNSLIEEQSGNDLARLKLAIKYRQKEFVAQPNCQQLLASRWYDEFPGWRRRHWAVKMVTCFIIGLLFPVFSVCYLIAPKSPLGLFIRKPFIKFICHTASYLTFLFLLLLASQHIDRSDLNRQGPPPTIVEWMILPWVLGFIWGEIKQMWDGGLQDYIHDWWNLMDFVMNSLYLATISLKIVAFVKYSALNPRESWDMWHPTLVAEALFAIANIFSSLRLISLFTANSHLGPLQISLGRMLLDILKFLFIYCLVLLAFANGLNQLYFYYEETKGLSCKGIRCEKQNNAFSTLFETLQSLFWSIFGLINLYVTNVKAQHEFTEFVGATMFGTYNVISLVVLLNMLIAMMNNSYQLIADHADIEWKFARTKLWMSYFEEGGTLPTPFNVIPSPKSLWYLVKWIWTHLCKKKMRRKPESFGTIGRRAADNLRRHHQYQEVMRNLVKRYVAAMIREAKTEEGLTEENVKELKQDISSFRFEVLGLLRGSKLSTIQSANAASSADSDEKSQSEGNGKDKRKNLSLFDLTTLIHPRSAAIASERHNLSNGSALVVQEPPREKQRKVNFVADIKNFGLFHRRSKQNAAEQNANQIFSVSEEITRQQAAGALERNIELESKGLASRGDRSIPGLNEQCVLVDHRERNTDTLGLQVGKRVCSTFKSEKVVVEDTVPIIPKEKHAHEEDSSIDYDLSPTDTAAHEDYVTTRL

Vero [18] = test: inhibition of WNV-induced cytopathic effect – cell-based, CPE readout (AID 1621); assay type: functional; details: Chlorocebus sabaeus
[19] = general cell-killing toxicity readout – plate reader, dry powder samples, cytotoxicity control for PAX8 inhibitor project, dose response (AID 743021); assay type: functional, cell-based
Paired box protein Pax-8 = Paired box protein Pax-8 (Homo sapiens, UniProt Q06710); test: PAX8 transcriptional activity inhibition in RMG-I – RMG-I cells, luciferase, cherry-pick, dose response (AID 687027); assay type: functional, cell-based;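 note: luciferase reporter driven by Pax8 target thyroperoxidase promoter measured by SteadyGlo luminescence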
[20] = target: Neurotensin receptor type 1 (Homo sapiens, UniProt P30989); assay type: functional;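 note: Image-based confirmatory dose-response assay measuring agonist activity at NTR1; NTR1-expressing U2OS osteosarcoma cells imaged for beta-arrestin GFP spot formation; agonist potency where compounds increase beta-arrestin recruitment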
Vero [21] = test: mammalian cell viability reduction – secondary assay, cytotoxicity control for West Nile virus antiviral project, dose response (AID 1650); assay type: functional; details: Chlorocebus sabaeus
[22] = non-specific 3'UTR reporter inhibition in Clone20-Shn3RL – cell-based, Renilla luciferase, cherry-picked, counter-screen for Shn3 inhibitor project, dose response (AID 624133); assay type: functional
[23] = reduction of Shn3 3'UTR-driven luciferase in osteoblasts – cell-based, Clone20 osteoblasts, firefly luciferase, cherry-picked, dose response (AID 624132); assay type: functional;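 note: firefly luciferase luminescence from reporter carrying the Shn3 3'UTR in osteoblasts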
INS1 = test: INS-1E survival protection against cytokine death – cell-based, luminescence, retest, dose response (AID 449756); assay type: functional; details: Rattus norvegicus;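 note: cell death triggered by IL-1 beta plus TNF-alpha plus IFN-gamma mixture; protective hits raise ATP signal compared with cytokine alone wells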

Heat shock 70 kDa protein 1A, sequence (P0DMV8 whole entry): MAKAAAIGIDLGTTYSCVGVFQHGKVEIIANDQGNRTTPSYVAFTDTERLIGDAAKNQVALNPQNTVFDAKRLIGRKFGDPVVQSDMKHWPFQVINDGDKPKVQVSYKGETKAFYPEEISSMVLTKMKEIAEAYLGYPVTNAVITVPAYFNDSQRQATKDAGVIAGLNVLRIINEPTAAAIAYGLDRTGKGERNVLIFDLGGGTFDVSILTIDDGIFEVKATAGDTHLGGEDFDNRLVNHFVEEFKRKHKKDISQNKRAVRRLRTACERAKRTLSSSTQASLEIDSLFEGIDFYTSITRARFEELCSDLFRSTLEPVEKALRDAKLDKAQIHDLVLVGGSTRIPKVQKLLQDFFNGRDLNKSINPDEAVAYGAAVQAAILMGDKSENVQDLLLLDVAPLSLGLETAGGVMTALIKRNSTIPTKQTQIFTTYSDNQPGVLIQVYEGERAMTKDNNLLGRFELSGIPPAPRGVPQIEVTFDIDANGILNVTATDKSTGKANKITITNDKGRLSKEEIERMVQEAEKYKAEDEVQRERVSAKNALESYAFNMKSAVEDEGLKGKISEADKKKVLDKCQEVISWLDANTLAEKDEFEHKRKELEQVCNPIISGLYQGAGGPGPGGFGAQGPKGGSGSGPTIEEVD
Heat shock cognate 71 kDa protein, sequence (P11142 whole entry): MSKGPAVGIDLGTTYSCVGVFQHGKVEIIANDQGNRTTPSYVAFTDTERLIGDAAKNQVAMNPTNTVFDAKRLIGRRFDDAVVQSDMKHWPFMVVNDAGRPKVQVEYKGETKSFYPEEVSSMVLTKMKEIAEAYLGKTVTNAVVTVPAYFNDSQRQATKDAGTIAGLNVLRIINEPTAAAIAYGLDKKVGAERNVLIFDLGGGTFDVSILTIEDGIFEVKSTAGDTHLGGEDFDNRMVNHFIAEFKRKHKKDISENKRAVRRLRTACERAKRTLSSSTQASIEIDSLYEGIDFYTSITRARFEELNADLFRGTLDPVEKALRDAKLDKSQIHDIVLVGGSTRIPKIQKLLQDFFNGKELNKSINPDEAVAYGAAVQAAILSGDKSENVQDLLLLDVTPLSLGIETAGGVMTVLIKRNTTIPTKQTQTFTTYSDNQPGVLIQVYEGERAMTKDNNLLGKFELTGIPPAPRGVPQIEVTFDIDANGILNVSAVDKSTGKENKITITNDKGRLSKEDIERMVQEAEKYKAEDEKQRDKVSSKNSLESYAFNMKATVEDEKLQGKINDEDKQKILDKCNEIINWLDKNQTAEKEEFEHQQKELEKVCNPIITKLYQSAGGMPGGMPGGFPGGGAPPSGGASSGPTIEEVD
FAD-linked sulfhydryl oxidase ALR, sequence (P55789 whole entry): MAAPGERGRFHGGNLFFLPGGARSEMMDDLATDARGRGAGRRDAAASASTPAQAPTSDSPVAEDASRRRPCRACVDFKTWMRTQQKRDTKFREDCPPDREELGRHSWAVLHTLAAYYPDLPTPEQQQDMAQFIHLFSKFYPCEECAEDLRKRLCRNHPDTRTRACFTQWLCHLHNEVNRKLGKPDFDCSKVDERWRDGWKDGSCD
Neurotensin receptor type 1, sequence (P30989 whole entry): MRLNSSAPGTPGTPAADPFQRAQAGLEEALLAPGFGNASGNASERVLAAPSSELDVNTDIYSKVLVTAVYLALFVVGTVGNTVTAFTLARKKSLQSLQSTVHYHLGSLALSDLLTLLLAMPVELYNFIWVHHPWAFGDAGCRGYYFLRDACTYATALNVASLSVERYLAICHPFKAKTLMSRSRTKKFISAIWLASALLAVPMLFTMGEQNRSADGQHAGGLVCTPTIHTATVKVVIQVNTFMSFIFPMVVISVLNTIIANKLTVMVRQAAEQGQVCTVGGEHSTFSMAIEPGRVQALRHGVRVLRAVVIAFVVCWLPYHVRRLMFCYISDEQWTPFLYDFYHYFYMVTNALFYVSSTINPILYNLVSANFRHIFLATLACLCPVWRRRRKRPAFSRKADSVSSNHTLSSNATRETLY
Dual specificity protein phosphatase 3, sequence (P51452 whole entry): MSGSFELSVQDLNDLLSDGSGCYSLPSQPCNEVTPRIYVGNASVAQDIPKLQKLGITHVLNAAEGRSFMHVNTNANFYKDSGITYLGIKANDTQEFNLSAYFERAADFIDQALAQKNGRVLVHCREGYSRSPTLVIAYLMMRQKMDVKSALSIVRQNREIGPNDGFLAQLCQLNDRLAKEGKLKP
Glyceraldehyde-3-phosphate dehydrogenase, sequence (P04406 whole entry): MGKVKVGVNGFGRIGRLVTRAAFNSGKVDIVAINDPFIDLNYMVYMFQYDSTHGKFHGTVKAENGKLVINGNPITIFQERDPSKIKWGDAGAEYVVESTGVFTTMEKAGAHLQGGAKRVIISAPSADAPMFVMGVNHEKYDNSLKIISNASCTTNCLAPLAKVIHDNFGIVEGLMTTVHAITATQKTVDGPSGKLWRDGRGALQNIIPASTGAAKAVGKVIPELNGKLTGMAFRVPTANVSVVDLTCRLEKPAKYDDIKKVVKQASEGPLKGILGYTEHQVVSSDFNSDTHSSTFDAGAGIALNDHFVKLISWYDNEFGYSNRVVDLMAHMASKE
Wee1-like protein kinase, sequence (P30291 whole entry): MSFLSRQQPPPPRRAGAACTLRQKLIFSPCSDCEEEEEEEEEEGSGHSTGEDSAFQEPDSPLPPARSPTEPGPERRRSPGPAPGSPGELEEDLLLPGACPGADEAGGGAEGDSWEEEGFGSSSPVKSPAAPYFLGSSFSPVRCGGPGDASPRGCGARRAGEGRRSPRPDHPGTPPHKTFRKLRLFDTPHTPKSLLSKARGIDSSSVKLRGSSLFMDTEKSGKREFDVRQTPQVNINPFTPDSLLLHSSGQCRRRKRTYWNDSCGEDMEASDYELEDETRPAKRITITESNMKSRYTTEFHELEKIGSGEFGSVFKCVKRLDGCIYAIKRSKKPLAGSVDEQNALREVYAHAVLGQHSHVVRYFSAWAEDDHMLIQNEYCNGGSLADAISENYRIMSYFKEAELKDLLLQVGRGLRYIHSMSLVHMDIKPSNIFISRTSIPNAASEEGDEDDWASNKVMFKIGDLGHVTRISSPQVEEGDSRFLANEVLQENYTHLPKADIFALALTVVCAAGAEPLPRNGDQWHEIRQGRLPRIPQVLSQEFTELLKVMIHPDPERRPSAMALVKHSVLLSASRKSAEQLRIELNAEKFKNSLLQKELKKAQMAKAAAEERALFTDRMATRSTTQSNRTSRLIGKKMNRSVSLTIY
Melanin-concentrating hormone receptor 1, sequence (Q99705 whole entry): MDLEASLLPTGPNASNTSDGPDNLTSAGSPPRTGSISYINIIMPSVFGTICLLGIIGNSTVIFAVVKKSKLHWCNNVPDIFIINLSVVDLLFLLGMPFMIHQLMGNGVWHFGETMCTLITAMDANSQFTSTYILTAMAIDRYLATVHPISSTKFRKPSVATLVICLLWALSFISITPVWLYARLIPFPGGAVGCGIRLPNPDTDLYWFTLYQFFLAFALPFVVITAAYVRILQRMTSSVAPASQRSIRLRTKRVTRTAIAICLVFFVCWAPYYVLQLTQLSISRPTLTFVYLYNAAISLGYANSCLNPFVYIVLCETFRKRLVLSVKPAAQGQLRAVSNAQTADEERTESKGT
Paired box protein Pax-8, sequence (Q06710 whole entry): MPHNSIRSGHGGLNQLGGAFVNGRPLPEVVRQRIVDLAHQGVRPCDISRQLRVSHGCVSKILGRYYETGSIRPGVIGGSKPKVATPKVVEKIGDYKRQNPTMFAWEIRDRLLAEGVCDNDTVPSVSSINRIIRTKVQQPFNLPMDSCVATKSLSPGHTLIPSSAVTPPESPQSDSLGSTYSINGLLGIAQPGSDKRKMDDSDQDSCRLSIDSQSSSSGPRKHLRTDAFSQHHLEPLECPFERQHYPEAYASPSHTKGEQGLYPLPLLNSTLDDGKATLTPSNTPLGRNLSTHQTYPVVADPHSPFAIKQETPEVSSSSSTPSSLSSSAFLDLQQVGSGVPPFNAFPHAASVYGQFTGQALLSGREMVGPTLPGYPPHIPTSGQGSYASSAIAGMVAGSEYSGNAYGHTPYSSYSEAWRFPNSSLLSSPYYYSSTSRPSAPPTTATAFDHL
Cyclin-dependent kinase 5/CDK5 activator 1, sequence (Q00535 whole entry): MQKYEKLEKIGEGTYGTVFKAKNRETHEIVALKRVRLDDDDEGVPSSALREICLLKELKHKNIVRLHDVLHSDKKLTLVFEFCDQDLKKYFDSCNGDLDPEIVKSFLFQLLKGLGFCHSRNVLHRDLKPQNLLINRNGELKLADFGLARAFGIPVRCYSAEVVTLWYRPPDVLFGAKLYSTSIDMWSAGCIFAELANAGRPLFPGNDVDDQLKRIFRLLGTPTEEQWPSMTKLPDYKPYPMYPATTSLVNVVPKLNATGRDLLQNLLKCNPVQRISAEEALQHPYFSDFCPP
Cyclin-dependent kinase 5/CDK5 activator 1, sequence (Q15078 whole entry, further chain): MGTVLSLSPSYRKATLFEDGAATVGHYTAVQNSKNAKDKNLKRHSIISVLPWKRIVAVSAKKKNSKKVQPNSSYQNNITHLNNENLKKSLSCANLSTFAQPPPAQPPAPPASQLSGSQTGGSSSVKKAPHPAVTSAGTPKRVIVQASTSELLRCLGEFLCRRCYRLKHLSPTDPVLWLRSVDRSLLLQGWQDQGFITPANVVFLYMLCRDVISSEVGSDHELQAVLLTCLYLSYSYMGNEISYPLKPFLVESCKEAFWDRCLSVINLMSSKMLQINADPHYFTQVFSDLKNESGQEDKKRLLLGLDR
G2/mitotic-specific cyclin-B1, sequence (P14635 whole entry): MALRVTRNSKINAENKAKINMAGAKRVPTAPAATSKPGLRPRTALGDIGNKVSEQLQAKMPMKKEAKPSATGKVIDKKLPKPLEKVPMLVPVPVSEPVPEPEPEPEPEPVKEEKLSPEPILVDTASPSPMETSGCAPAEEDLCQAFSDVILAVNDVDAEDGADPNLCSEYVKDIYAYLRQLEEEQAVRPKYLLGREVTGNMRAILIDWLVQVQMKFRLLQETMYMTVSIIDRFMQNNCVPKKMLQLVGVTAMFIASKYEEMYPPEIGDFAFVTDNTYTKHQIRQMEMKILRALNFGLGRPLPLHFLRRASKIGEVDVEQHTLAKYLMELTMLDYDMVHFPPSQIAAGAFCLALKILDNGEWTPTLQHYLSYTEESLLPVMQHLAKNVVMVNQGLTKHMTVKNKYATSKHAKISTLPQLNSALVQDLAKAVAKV

Compound: Cn1c(=O)c2c(nc(S)n2Cc2ccccc2Cl)n(C)c1=O
- Ki [1]: 25.4 µM (inactive)

Compound: Cc1cc(C)c2c(c1)C1C=CCC1C(C(=O)O)N2 (configuration not stated)
- IC50 [2]: 24.7 µM (active)
- IC50 [3]: > 100 µM (not active)
- IC50 [4]: > 100 µM (inactive)
- IC50 [5]: 70.2 µM (active)
- IC50 [6]: > 100 µM (not active)
- IC50 [7]: > 100 µM (inactive)

Compound: Cc1cc(O)nc(-n2nc(C)cc2NC(=O)c2ccc(Br)cc2)n1
- EC50 (Wee1-like protein kinase): > 49.7 µM (inactive)
- EC50 [8]: > 49.7 µM (inactive)

Compound: COc1ccc(Oc2c(Cl)cnn(-c3cccc(C)c3C)c2=O)cc1
- IC50 [9]: 12.5 µM (inactive)

Compound: Oc1ccc(/C=N/Nc2ccc(C(F)(F)F)cn2)cc1
- EC50 [10]: 0.998 µM (active)
- EC50 [11]: 0.329 µM (active)
- EC50 [12]: < 0.1 µM (inconclusive)
- EC50 (H4): > 120 µM (not active)
- EC50 [13]: 0.35 µM (active)
- AC50 [14]: 19.9 µM (active)
- IC50 [15]: 28.9 µM (active)
- AC50 [16]: 37.5 µM (active)

Compound: CC[C@@H](C(=O)[C@@H](C)[C@@H](O)[C@H](C)CCc1ccc(C)c(O)c1C(=O)O)[C@H]1O[C@](CC)([C@H]2CC[C@](O)(CC)[C@H](C)O2)C[C@@H]1C [LASALOCID A SODIUM]
- EC50 [17]: 5.96 µM (active)
- IC50 (Vero [18]): 8.3 µM (active)
- AC50 [19]: 40.7 µM (active)
- AC50 (Paired box protein Pax-8): 3.52 µM (active)
- EC50 [20]: 30.5 µM (inactive)
- CC50 (Vero [21]): 19.4 µM (active)
- AC50 [22]: 8.23 µM (active)
- AC50 [23]: 7.93 µM (active)
- AC50 (INS1): 2.64 µM (active)
